Assay results reported in US8623429B2, “Stabilized anthocyanin compositions” (Omnica GmbH, priority 2007, dated 2014).

Test: Example 1: stability of bilberry extract anthocyanosides, 4 hours at 37° C., pH 7.0, with/without DHLA or GSH (HPLC)
Format: physicochemical
Conditions: for % left, GSH (4 hours) / Peak Area, GSH (4 hours): 20 mg reduced L-glutathione; for % left, GSH (4 hours) / Peak Area, GSH (4 hours) / % left, DHLA (4 hours) / Peak Area, DHLA (4 hours) / % left, Blank (4 hours) / Peak Area, Blank (4 hours): pH 7.0, 37° C.; for % left, DHLA (4 hours) / Peak Area, DHLA (4 hours): 30 mg dihydrolipoic acid; for Peak Area, Fresh (0 hours): bilberry extract 60 mg/100 ml sodium phosphate buffer pH 7.0, fresh sample; for % left, Blank (4 hours) / Peak Area, Blank (4 hours): unprotected
Description: (0.048 mmol anthocyanosides expressed as cyanidin-3-O-glucoside) were added to a 100 ml flask and filled to volume with sodium phosphate buffer (5% [w/w], pH=7.0), and stirred until dissolution was complete. A 1 ml sample was taken immediately and acidified with formic acid to pH=1.0 and analyzed by HPLC for the content of anthocyanosides (Fresh Sample). The remaining solution was kept for 4 hours at 37° C. (water bath) with stirring. Thereafter another sample (Blank sample), representing unprotected degradation, was taken and acidified.
(0.048 mmol expressed as cyanidin-3-O-glucoside) were then added and the flask was filled to volume with sodium phosphate buffer (5% [w/w], pH=7.0) and kept for 4 hours at 37° C. (water bath) with stirring.
After 4 hours, samples were taken and acidified immediately with formic acid to pH=1.0 and analyzed by HPLC for the content of anthocyanosides. Degradation is expressed as decrease in peak area of individual peaks (calculated as % left after 4 hours).
Samples were prepared as outlined below in HPLC Analytical Method. Test stability samples were immediately acidified (to block degradation) and injected undiluted following the detailed description provided below.
Quantitation: External standardization based on linear regression analysis. The response factors of all anthocyanosides separated is quantitified against cyanidin-3-O-glucoside.
Test solutions from incubation experiments (with/without cells and with/without stabilizing agents) were used for analysis after stabilization of anthocyanosides with formic acid. Samples were cleared by filtration prior to injection on to HPLC-system.

Oc1cc(O)c2cc(O[C@@H]3OC[C@H](O)[C@H](O)[C@H]3O)c(-c3ccc(O)c(O)c3)[o+]c2c1 [Cn-3O-Ara, Cyanidin 3-o-arabinoside]
% left, GSH (4 hours): 79.5% | Peak Area, GSH (4 hours): 293.7 | % left, DHLA (4 hours): 70.2% | Peak Area, DHLA (4 hours): 258.4 | Peak Area, Fresh (0 hours): 369.6 | % left, Blank (4 hours): 38.5% | Peak Area, Blank (4 hours): 142.3

Oc1cc(O)c2cc(O[C@H]3OC[C@H](O)[C@H](O)[C@H]3O)c(-c3cc(O)c(O)c(O)c3)[o+]c2c1 [Dp-3O-Ara, Delphinidin 3-o-arabinoside]
% left, GSH (4 hours): 50.2% | Peak Area, GSH (4 hours): 283.6 | % left, DHLA (4 hours): 64.5% | Peak Area, DHLA (4 hours): 364.4 | Peak Area, Fresh (0 hours): 564.9 | % left, Blank (4 hours): 6.9% | Peak Area, Blank (4 hours): 39.1

COc1cc(-c2[o+]c3cc(O)cc(O)c3cc2O[C@@H]2OC[C@H](O)[C@H](O)[C@H]2O)cc(OC)c1O [Mv-3O-Ara, Malvidin 3-o-arabinoside]
% left, GSH (4 hours): 75.0% | Peak Area, GSH (4 hours): 81.2 | % left, DHLA (4 hours): 69.4% | Peak Area, DHLA (4 hours): 75.2 | Peak Area, Fresh (0 hours): 108.3 | % left, Blank (4 hours): 34.0% | Peak Area, Blank (4 hours): 36.8

COc1cc(-c2[o+]c3cc(O)cc(O)c3cc2O[C@@H]2O[C@H](CO)[C@H](O)[C@H](O)[C@H]2O)cc(OC)c1O [Mv-3O-Gal, Malvidin 3-o-galactoside]
% left, GSH (4 hours): 74.4% | Peak Area, GSH (4 hours): 133.2 | % left, DHLA (4 hours): 62.8% | Peak Area, DHLA (4 hours): 112.5 | Peak Area, Fresh (0 hours): 179.1 | % left, Blank (4 hours): 37.6% | Peak Area, Blank (4 hours): 67.3

COc1cc(-c2[o+]c3cc(O)cc(O)c3cc2O[C@@H]2O[C@H](CO)[C@@H](O)[C@H](O)[C@H]2O)cc(OC)c1O [Mv-3O-Glc, Malvidin 3-o-glucoside]
% left, GSH (4 hours): 73.7% | Peak Area, GSH (4 hours): 336.2 | % left, DHLA (4 hours): 63.0% | Peak Area, DHLA (4 hours): 287.4 | Peak Area, Fresh (0 hours): 455.9 | % left, Blank (4 hours): 36.1% | Peak Area, Blank (4 hours): 164.7

COc1cc(-c2[o+]c3cc(O)cc(O)c3cc2O[C@@H]2O[C@H](CO)[C@@H](O)[C@H](O)[C@H]2O)ccc1O [Pe-3O-Glc, Peonidin 3-o-glucoside]
% left, GSH (4 hours): 76.9% | Peak Area, GSH (4 hours): 172.0 | % left, DHLA (4 hours): 62.3% | Peak Area, DHLA (4 hours): 139.2 | Peak Area, Fresh (0 hours): 223.6 | % left, Blank (4 hours): 42.4% | Peak Area, Blank (4 hours): 94.8

COc1cc(-c2[o+]c3cc(O)cc(O)c3cc2O[C@@H]2OC[C@H](O)[C@H](O)[C@H]2O)cc(O)c1O.[Cl-] [Pt-3O-Ara, Petunidin 3-o-arabinoside]
% left, GSH (4 hours): 69.4% | Peak Area, GSH (4 hours): 97.6 | % left, DHLA (4 hours): 66.6% | Peak Area, DHLA (4 hours): 93.7 | Peak Area, Fresh (0 hours): 140.6 | % left, Blank (4 hours): 16.2% | Peak Area, Blank (4 hours): 22.8
